Source: patent US9694073B2, “Small molecule inhibitors of polynucleotide kinase/phosphatase, poly(ADP-ribose) polymerase and uses thereof” (THE GOVERNORS OF THE UNIVERSITY OF ALBERTA, priority 2009, dated 2017)
“Also recorded” adds a separate entry of the source.

Assays:
[1] = system: DNA Polymerase β Dominant Negative (Pol β DN) A549 cells; assay: Synthetic lethality cell proliferation assay; assay type: cell-based, human; conditions: increasing concentrations, 72 hours
[2] = molecular target: T1, Phage T4 polynucleotide kinase (T4 PNK) (Enterobacteria phage T4, UniProt P06855); assay: PiColorLock 3'-phosphatase assay, phage T4 PNK; assay type: biochemical, bacteriophage T4
T1 construct: purchased Roche Diagnostics (Indianapolis, Ind.)
Source text: (§1) To determine the specificity of A12B4C3 for human PNKP phosphatase activity, a number of closely related phosphatases such as the PNKP enzymes isolated from bacteriophage T4, Schizosaccharomyces pombe and mouse, as well as aprataxin, were examined.

[3] = molecular target: T2, mouse PNKP (Mus musculus, UniProt Q9JLV6); assay: PiColorLock 3'-phosphatase assay, mouse PNKP; assay type: biochemical; conditions: all concentrations tested (down to 5 μM)
T2 construct: made in house
Source text: as §1

[4] = molecular target: T3, human PNKP (hPNKP) 3'-phosphatase activity (Homo sapiens, UniProt Q96T60); assay: Fluorescence quenching-based screening assay for PNKP 3'-phosphatase activity; assay type: biochemical; conditions: 100 μM compound, 50 ng hPNKP
T3 construct: made in house; host or cells: bacteria (said only for the batch compared with aprataxin)
Experimental: The […] assay developed originally for protein kinases by QTL Biosystems (Santa Fe, N. Mex.) was modified. […] The TAMRA-labelled oligonucleotide lacking a 3'-phosphate served as a control. […] The assay was performed in 384-well white Optiplate microplates (PerkinElmer, Woodbridge, ON) in 70 mM Tris-HCl, pH 7.4, 60 mM MgCl2, 5 mM MnCl2, 0.3% BSA, 0.09% sodium azide. Reaction buffer was prepared by adding 1 mM DTT immediately prior to use. Five μL of 3'-phosphatase substrate (final concentration 0.5 μM) was used per well. In duplicate, 10 μl of each concentration of hPNKP was added per well. Plates were incubated for 1 hour at 37° C. and then 15 μl of 1× sensor solution (provided by QTL) was added to each well and incubated for 30 minutes at room temperature. Fluorescence (485 nm excitation and 520 nm emission wavelengths) of each well was read in a FLUOstar Optima® (BMG Labtech Inc, Durham, N.C.). Data were analyzed using GraphPad Prism® Software (San Diego, Calif.). […] Small molecules were provided in powder form and were dissolved in 100% DMSO and a final concentration of 100 μM was added to each well and assays were performed as described above. After obtaining an optimum calibration curve and enzyme concentration curve, a simplified form of the assay to test the library in a short time, was employed. One concentration of hPNKP, 50 ng, was tested and compared with the control well with no enzyme. The assay was conducted in the same way as described above with respect to oligonucleotides, buffer, controls, incubation lengths/temperatures, centrifugations and sensor addition. The fluorescence-based phosphatase assay adapted was originally developed to monitor protein phosphatase activity (34). This assay involves a fluorescent sensor molecule coated in trivalent metal cations which causes superquenching of the sensor signal when in close proximity to a dye (TAMRA) on the substrate. The sensor is brought close to TAMRA via the ionic bond formed between the terminal DNA phosphate and the trivalent metal cations on the sensor. Removal of the phosphate leads to an elevation of fluorescence because the sensor is not brought close enough to TAMRA for its signal to be quenched. […] Heat inactivated hPNKP was used as a control.

[5] = system: A549 cells; assay: Cell proliferation (MTS) assay, compound alone; assay type: cell-based, human; conditions: 72 hours
Experimental: (§2) To determine the effect of the inhibition of PNKP by small molecule inhibitors on cell proliferation we used the CellTiter 96™ AQueous Non-Radioactive Cell Proliferation Assay (Promega, Madison Wis.), better known as the MTS assay. Approximately 2.5×10^3 A549 cells were plated in triplicate in a 96-well plate with different concentration of A12B4C3. After 72 hours, 20 μl of CellTiter 96 Aqueous One Solution Reagent was added to each well and cells were incubated for 4 more hours at 37° C. The absorbance recorded at 490 nm was used as the number of living cells in culture (FLUOstar Optima, BMG Labtechnologies).
(§3) A12B4C3 was first tested for inherent toxicity. Cytotoxicity was measured by cell proliferation assay after exposure of A549 human lung adenocarcinoma cells and MDA-MB-231 cells to different doses of the compound for 72 hours (FIG. 6A). A dose-dependent reduction in cell proliferation up to 50% at 100 μM A12B4C3 was observed. […] While not wishing to be bound by theory, this may be indicative of a maximal level of drug uptake. No effect on cell proliferation was detected after exposure to 1 μM A12B4C3.

[6] = system: MDA-MB-231 cells; assay: Cell proliferation (MTS) assay, compound alone; assay type: cell-based, human; conditions: 72 hours
Experimental: as §2, §3

[7] = system: A549 cells; assay: Chemosensitization to camptothecin, clonogenic survival assay; assay type: cell-based, human; conditions: 1 mM A12B4C3 2 hours before camptothecin, further 24 hours, wild type A549
Experimental: The effect of hPNKP inhibition by A12B4C3 on cellular survival following exposure to the topoisomerase I poison, camptothecin, was measured in A549 and A549δPNKP cells by the clonogenic survival assay (colony forming assay). Cells were seeded on 60-mm tissue culture plates at various concentrations to give between about 100-1000 colonies per plate and returned to the incubator overnight to allow the cells to attach. For chemosensitization studies, the cells were incubated with or without 1 mM A12B4C3 for 2 hours before addition of camptothecin and then exposed to increasing doses of camptothecin (Sigma). After addition of the topoisomerase I poison, cells were incubated for a further 24 hours in the same media and then washed twice with phosphate-buffered saline (PBS) and incubated in fresh media without the inhibitor. Colonies were stained with crystal violet after 10 to 14 days and counted with an automated Colcount colony counter (Oxford Optronix, Oxford, UK).
The capacity of A12B4C3 to act as a chemosensitizer was then examined. […] Colonies were stained with crystal violet after 10 to 14 days and counted with an automated Colcount colony counter (Oxford Optronix, Oxford, UK).

T1 sequence (P06855 whole entry): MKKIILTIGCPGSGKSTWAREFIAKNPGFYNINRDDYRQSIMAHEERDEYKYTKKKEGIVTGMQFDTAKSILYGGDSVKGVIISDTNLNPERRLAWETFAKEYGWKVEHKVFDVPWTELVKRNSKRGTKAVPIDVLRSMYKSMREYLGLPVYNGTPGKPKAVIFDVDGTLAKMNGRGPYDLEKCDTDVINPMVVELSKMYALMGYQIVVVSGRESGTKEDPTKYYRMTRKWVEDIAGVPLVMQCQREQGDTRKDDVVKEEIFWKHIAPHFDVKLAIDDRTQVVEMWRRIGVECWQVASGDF
T2 sequence (Q9JLV6 whole entry): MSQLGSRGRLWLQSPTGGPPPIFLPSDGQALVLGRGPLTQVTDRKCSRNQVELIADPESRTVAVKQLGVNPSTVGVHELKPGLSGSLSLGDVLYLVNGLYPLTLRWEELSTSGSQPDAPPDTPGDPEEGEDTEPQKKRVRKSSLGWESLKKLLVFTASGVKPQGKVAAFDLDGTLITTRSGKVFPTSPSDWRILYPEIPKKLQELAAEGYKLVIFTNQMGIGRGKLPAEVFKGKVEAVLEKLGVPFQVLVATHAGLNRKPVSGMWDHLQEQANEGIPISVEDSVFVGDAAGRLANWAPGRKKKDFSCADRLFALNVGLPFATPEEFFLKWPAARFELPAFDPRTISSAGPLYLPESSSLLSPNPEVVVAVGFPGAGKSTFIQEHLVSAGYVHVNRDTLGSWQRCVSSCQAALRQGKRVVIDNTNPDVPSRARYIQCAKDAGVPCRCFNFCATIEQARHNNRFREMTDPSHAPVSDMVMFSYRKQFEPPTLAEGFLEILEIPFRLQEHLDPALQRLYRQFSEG

In the case of CCCCCCCCCCC(O)C1C=CC2C(=O)N(c3ccccc3)C(=O)C2N1Nc1ccc([N+](=O)[O-])cc1 (stereo not shown) [Compound A12B4C3, 2-(1-hydroxyundecyl)-1-(4-nitrophenylamino)-6-phenyl-6,7a-dihydro-1H-pyrrolo[3,4-b]pyridine-5,7(2H,4aH)-dione], the “cell survival of Pol β DN cells” value [1] is reported as “reduced survival; also recorded: inverse relationship”, the “inhibition of phage T4 PNKP” value ([2]; 50 μM) is reported as “failed to inhibit” and the inhibition at 50 µM ([2]; read-out: inhibition of phage T4 PNKP) is reported as about 12.5%. The “inhibition of mouse PNKP” value [3] was “significantly inhibited”, the “inhibition of hPNKP phosphatase activity (substrate dephosphorylation) in the screening assay” value [4] was “significant inhibition; also recorded: marked inhibition” and the “effect on cell proliferation” value ([5]; 1 μM) was “No effect”. For the same compound, the “reduction in cell proliferation” value ([5]; 100 μM) was “up to 50%”, the “effect on cell proliferation” value ([6]; 1 μM) was “No effect” and the “reduction in cell proliferation” value ([6]; 100 μM) was “up to 50%”. The chemosensitization to camptothecin [7] was “effectively sensitized”.
